Source: patent US20250098680A1 (priority 2022, published 2025)

How the values were obtained:
[1] = test system: Cucumber downey mildew; conditions: described in JP2003081945A; cited from earlier work
[2] = test system: Phytophthora infestans; format: cell-based; conditions: for effective pesticide against Phytophthora infestans (summary in words): summary of in vitro screening; for Bio-activity value Phytophthora infestans: tomato leaf discs, compound dissolved in DMSO, visual score 5 days, % from maximal value
[3] = test system: Phytophthora infestans; format: in vivo, Phytophthora infestans on tomato; conditions: tomato seedlings, greenhouse, preventative spraying, Formulation 15 or 16, four independent experiments (FIGS. 1-4)
[4] = test system: Pseudoperonospora cubensis; assay: Microplate-based cucumber leaf disc screening against Pseudoperonospora cubensis; format: cell-based
Experimental: Background: Pseudoperonospora cubensis is an obligatory pathogen from Oomycetes which is very difficult to grow on synthetic medium. Therefore, the bioactivity screening system based on leaf discs prepared from detached cucumber leaves were used.
Summary: dihydroquinidine or dihydroquinine were dissolved in DMSO were added to cucumber leaf discs infected with Pseudoperonospora and the disease progress was monitored by visual inspection.
General description: Inoculation and maintenance on cucumber leaves, preparation of spore suspension, their growth on leaf discs in microplates and inspection by magnifying glass of Pseudoperonospora cubensis severity of infection.
• 1) Grow plants, in the growth room (27° C.), high light radiation. • 2) Use standard garden soil. • 3) Plant cucumber seeds. • 4) Add fertilizer once a week.
• 1) Put 3 (double) pieces of sterile paper in a square Petri dish. • 2) Work in sterile conditions. • 3) Use leaves from healthy plants. The leaves should be young and healthy, their size should fit to the square plate. • 4) Cut the leaves by a sterile scalpel, leaving a long stem. • 5) Add 10 ml sterile distilled water to wet the paper (the paper should be maximally wet, but without additional dripping water), discard excess of water. […]

Row | SMILES | bioactivity against Cucumber downey mildew [1] | effective pesticide against Phytophthora infestans (summary in words) [2] | Bio-activity value Phytophthora infestans [2] [%] | efficacy of control of Phytophthora infection [3] | Bio-activity value Pseudoperonospora cubensis ([4]; cucumber leaf discs, compound dissolved in DMSO, visual score 7 days after inoculation, % from maximal value) [%] | effective pesticide against Pseudoperonospora cubensis (summary in words) ([4]; summary of in vitro screening)
1 | C=C[C@H]1C[N@@]2CC[C@H]1C[C@H]2[C@H](O)c1ccnc2ccc(OC)cc12 [quinine] | fungicidal bioactivity |  |  |  |  | 
2 | CCC1C[N@]2CC[C@H]1C[C@H]2C(O)c1ccnc2ccc(OC)cc12 (stereo in doubt) [DIHYDROQUININE, (R)-[(2S,4S,5R)-5-ethyl-1-azabicyclo[2.2.2]octan-2-yl](6-methoxyquinolin-4-yl) methanol] |  | affective | 83 |  |  | 
3 | CCC1C[N@]2CC[C@H]1C[C@@H]2C(O)c1ccnc2ccc(OC)cc12 (stereo in doubt) [DIHYDROQUINIDINE, (S)-[(2R,4S,5R)-5-ethyl-1-azabicyclo[2.2.2]octan-2-yl](6-methoxyquinolin-4-yl) methanol] |  | effective | 100 | up to 89.38% | 66 | effective
